biological target: T1, Serine/threonine-protein phosphatase 5 (Homo sapiens, UniProt P53041); assay: Fluorescence Polarization Assay; details: pH 7.4; 25 °C
T1 sequence (P53041 whole entry): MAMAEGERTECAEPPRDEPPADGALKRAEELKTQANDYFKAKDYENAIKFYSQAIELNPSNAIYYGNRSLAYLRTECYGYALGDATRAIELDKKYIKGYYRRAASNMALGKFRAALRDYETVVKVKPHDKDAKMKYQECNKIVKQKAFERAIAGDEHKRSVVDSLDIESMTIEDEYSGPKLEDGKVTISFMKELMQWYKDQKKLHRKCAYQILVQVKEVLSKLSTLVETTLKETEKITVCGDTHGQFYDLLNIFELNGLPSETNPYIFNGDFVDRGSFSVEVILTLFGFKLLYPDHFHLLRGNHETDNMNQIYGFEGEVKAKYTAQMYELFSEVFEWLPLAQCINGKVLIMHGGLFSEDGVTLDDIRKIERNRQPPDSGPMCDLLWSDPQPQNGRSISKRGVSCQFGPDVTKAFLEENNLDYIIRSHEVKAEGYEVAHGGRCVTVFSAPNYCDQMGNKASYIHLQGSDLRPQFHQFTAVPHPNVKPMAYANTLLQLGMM
Description: All fluorescence polarization experiments were conducted in 384-well, black, low volume, round-bottomed plates (Corning) using a BioTeck Synergy 2 plate reader (Winooski, VT). For binding experiments, to each well was added increasing amounts of protein and the 5-carboxyfluorescein-labeled Hsp70/90 C-terminal probe/tracer (20 nM). […] The plate was allowed to incubate at room temperature for 5 min toreach equilibrium. […] An equilibrium binding isotherm was constructed by plotting the fluorescence polarization reading as a function of the protein concentration at a fixed concentration of tracer (20 nM).

Row | Compound | Kd
1 | CSCC[C@H](NC(=O)[C@H](CCCNC(=N)N)NC(=O)[C@H](CO)NC(=O)[C@H](C)NC(=O)[C@H](CC(=O)O)NC(=O)[C@@H](N)CCC(=O)O)C(=O)N[C@@H](CCC(=O)O)C(=O)N[C@@H](CCC(=O)O)C(=O)N[C@H](C(=O)N[C@@H](CC(=O)O)C(=O)O)C(C)C | 77 nM
2 | CSCC[C@H](NC(=O)[C@@H](NC(=O)[C@@H]1CCCN1C(=O)CNC(=O)[C@H](CO)NC(=O)CN)[C@@H](C)O)C(=O)N[C@@H](CCC(=O)O)C(=O)N[C@@H](CCC(=O)O)C(=O)N[C@H](C(=O)N[C@@H](CC(=O)O)C(=O)O)C(C)C | 133 nM
3 | H-DVEEM-OH [DVEEM] | > 10000 nM

The remaining compounds from weak to strong by Kd, led by results:

Row | Kd | Compound
4 | 1060 nM | CC[C@H](C)[C@H](NC(=O)[C@@H](NC(=O)[C@@H]1CCCN1C(=O)CNC(=O)[C@H](CO)NC(=O)[C@@H](N)CO)[C@@H](C)O)C(=O)N[C@@H](CCC(=O)O)C(=O)N[C@@H](CCC(=O)O)C(=O)N[C@H](C(=O)N[C@@H](CC(=O)O)C(=O)O)C(C)C
5 | 426 nM | CC[C@H](C)[C@H](N)C(=O)N[C@@H](CCC(=O)O)C(=O)N[C@@H](CCC(=O)O)C(=O)N[C@H](C(=O)N[C@@H](CC(=O)O)C(=O)O)C(C)C [IEEVD]
6 | 420 nM | H-DDTSRIEEVD-OH

Source: BindingDB's records for doi:10.1074/jbc.M113.519421 (University of Michigan, 2014)
